The text below walks through data of US20180071354A1, “SELECTIVE BREEDING METHOD OF ANTITUMOR/ANTICANCER CAMELLIA SINENSIS STRAIN, AND TEA PRODUCT OF SUCH STRAIN” (FUJIAN AGRICULTURE AND FORESTRY UNIVERSITY, priority 2015, published 2018).

Holding throughout (format): cell-based
Assay [1] relates to human leukemia cell line HL-60. The assay can be described thus: In vitro antitumor/anticancer testing (CCK-8), HL-60. The conditions noted are these: Homo sapiens, HL-60, 48 h. How it is done:
(§1) Each of Tea Product 1 and Conventional Tea Product obtained in section A of this example was used to prepare test tea samples according to the method described below. A proper amount of the respective tea product was added into sterile water to prepare a stock solution with a concentration of 100 mg/mL, followed by using a membrane filter with a pore size of 0.22 μm to conduct vacuum filtration and sterilization. The resulting stock solution was diluted with a respective complete medium shown in Table 3 below to form test tea samples with different concentrations. In other words, the thus obtained test tea samples to be used for treating a respective cancer/tumor cell line shown in Table 3 were prepared using the same complete medium as that for the respective cancer/tumor cell line. […] Specifically, each of the aforesaid commercially available agents was subjected to the method described below to prepare comparative test samples. A proper amount of a respective commercially available agent was dissolved in phosphate-buffered saline (PBS) to prepare a stock solution with a concentration of 5 mg/mL, followed by using a membrane filter with a pore size of 0.22 μm to conduct vacuum filtration and sterilization. The resulting stock solution was diluted with a respective complete medium shown in Table 3 below to form comparative test samples with different concentrations. To be specific, the comparative test samples prepared from the respective commercially available agent have the concentrations shown in Table 2 below. The thus obtained comparative test samples to be used for treating a respective cancer/tumor cell line shown in Table 3 were prepared using the same complete medium as that for the respective cancer/tumor cell line. […] The cultivation of each cancer/tumor cell line is described as follows. […] Afterwards, a cell suspension having a cell density of 1.0×10^4 cells/mL was prepared. […] As experimental groups, the tumor/cancer cells of each cell line were treated with the test tea samples prepared from one or more of the tea products and the comparative test samples prepared from one or more of the commercially available agents as obtained in section B of this example (for more detailed information about the tea product(s) and the commercially available product (s) used to treat each cell line, please see Table 4 below). To be specific, 6 to 10 test tea samples prepared from the same tea product and having different concentrations, as well as 6 to 10 comparative test samples prepared from the same commercially available agent and having different concentrations, were utilized to treat the tumor/cancer cells of each cell line. For each experimental group, 6 repetitions of tumor/cancer treatment were performed. For the control group, 100 μL of PBS was added to a well containing the medium and the cancer/tumor cells of the respective cell line. For the blank group, 100 μL of PBS was added to a well containing a complete medium the same as that used for cultivation of the cancer/tumor cells of the respective cell line. After the treatment described above, cultivation was conducted in an incubator (37° C., 100% relative humidity, 5% CO2) for 48 hours. Subsequently, the liquid containing the medium and the sample in the well was removed, and a respective complete medium (shown in Table 3 above) containing 10% CCK-8 (Cell Counting Kit-8)(Dojindo Molecular Technologies, Inc., Cat. No. CK04-13) was added. Cultivation was performed in an incubator (37° C.) for 2 to 4 hours, followed by gently shaking.

For assay [2], the system named is human mammary gland/duct cancer cell line BT-474. The experiment in a line: In vitro antitumor/anticancer testing (CCK-8), BT-474. The conditions noted are these: Homo sapiens, BT-474, 48 h. Here is the method: as §1
In assay [3] the test system is human prostate cancer cell line PC-3. The assay can be described thus: In vitro antitumor/anticancer testing (CCK-8), PC-3. As to conditions: Homo sapiens, 48 h. Here is the method: Each of Tea Product 1 and Conventional Tea Product obtained in section A of this example was used to prepare test tea samples according to the method described below. A proper amount of the respective tea product was added into sterile water to prepare a stock solution with a concentration of 100 mg/mL, followed by using a membrane filter with a pore size of 0.22 μm to conduct vacuum filtration and sterilization. The resulting stock solution was diluted with a respective complete medium shown in Table 3 below to form test tea samples with different concentrations. In other words, the thus obtained test tea samples to be used for treating a respective cancer/tumor cell line shown in Table 3 were prepared using the same complete medium as that for the respective cancer/tumor cell line.
Specifically, each of the aforesaid commercially available agents was subjected to the method described below to prepare comparative test samples. A proper amount of a respective commercially available agent was dissolved in phosphate-buffered saline (PBS) to prepare a stock solution with a concentration of 5 mg/mL, followed by using a membrane filter with a pore size of 0.22 μm to conduct vacuum filtration and sterilization. The resulting stock solution was diluted with a respective complete medium shown in Table 3 below to form comparative test samples with different concentrations. To be specific, the comparative test samples prepared from the respective commercially available agent have the concentrations shown in Table 2 below. The thus obtained comparative test samples to be used for treating a respective cancer/tumor cell line shown in Table 3 were prepared using the same complete medium as that for the respective cancer/tumor cell line.
The following cancer/tumor cells purchased from Chinese Academy of Sciences, Shanghai Institutes for Biological Sciences, Institute of Biochemistry and Cell Biology were used for in vitro antitumor/anticancer testing: human liver cancer cell line HepG2, human ovarian cancer cell line SK-OV-3, human cervical cancer cell line Hela, human lung cancer cell line A549, human glioblastoma cell line U-87MG, human mammary gland/duct cancer cell line BT-474, human prostate cancer cell line PC-3, human leukemia cell line HL-60, human gastric cancer cell line SMMC-7721, human colon cancer cell line HCT-116, human squamous cell carcinoma cell line A431, human leukemia cell line K562, human pancreatic cancer cell line PANC-1, and human gastric cancer cell line BGC-823.
The cultivation of each cancer/tumor cell line is described as follows. The cancer/tumor cancer cells were cultivated in the respective complete medium supplemented with 100 μg/mL penicillin and 100 μg/mL streptomycin in an incubator (37° C., 100% relative humidity, 5% CO2). When adherent cancer/tumor cells reached 80% confluence during the log-phase, cell detachment was conducted using 0.6 mL of 0.3% trypsin. Afterwards, a cell suspension having a cell density of 1.0×10^4 cells/mL was prepared. 100 μL of the cell suspension (i.e. 1000 cancer/tumor cells) was added into wells of a 96-well plate (Cat. No. 3599, Corning Costar), followed by cultivation in an incubator (37° C., 100% relative humidity, 5% CO2) for 24 hours.
As experimental groups, the tumor/cancer cells of each cell line were treated with the test tea samples prepared from one or more of the tea products and the comparative test samples prepared from one or more of the commercially available agents as obtained in section B of this example (for more detailed information about the tea product(s) and the commercially available product (s) used to treat each cell line, please see Table 4 below). To be specific, 6 to 10 test tea samples prepared from the same tea product and having different concentrations, as well as 6 to 10 comparative test samples prepared from the same commercially available agent and having different concentrations, were utilized to treat the tumor/cancer cells of each cell line. […]

Where [4] appears, read: 0.125 μg/mL, read-out: Percent growth inhibition.
[5] abbreviates: 0.25 μg/mL, read-out: Percent growth inhibition.
Setting [6] is: 0.5 μg/mL, read-out: Percent growth inhibition.
Where [7] appears, read: 1 μg/mL, read-out: Percent growth inhibition.
Where [8] appears, read: 2 μg/mL, read-out: Percent growth inhibition.
The mark [9] stands for this setting: 4 μg/mL, read-out: Percent growth inhibition.
Where [10] appears, read: 8 μg/mL, read-out: Percent growth inhibition.
Setting [11] is: 16 μg/mL, read-out: Percent growth inhibition.
[12] abbreviates: 32 μg/mL, read-out: Percent growth inhibition.

Each structure is given as a SMILES string. ≈ marks a conversion by molar mass, not a printed value.

Take `COc1cc([C@@H]2c3cc4c(cc3[C@@H](O[C@@H]3O[C@@H]5CO[C@@H](C)O[C@H]5[C@H](O)[C@H]3O)[C@H]3COC(=O)[C@H]23)OCO4)cc(OC)c1O` [Etoposide]: the inhibition at 0.125 µg/mL in assay [1] (setting [4]) worked out at 62.4%. In addition, the inhibition at 0.25 µg/mL in assay [1] (setting [5]) turned out to be 73.6%. Further, in assay [1] (setting [6]), the inhibition at 0.5 µg/mL came to 82.9%. Besides, in assay [1] (setting [7]), the inhibition at 1 µg/mL is 97.8%. In addition, the inhibition at 2 µg/mL in assay [1] (setting [8]) stood at 100%. The inhibition at 4 µg/mL in assay [1] (setting [9]) was 100%. Further, the inhibition at 8 µg/mL in assay [1] (setting [10]) was determined as 100%. In addition, the inhibition at 16 µg/mL in assay [1] (setting [11]) turned out to be 101%. In addition, the inhibition at 32 µg/mL in assay [1] (setting [12]) was found to be 100%. In addition, the concentration for half-maximal inhibition (IC50) in assay [1] (read-out: IC50) came out at 0.0855 µg/mL (≈ 0.145 µM).

In the case of `COc1cccc2c1C(=O)c1c(O)c3c(c(O)c1C2=O)C[C@@](O)(C(=O)CO)C[C@@H]3O[C@H]1C[C@H](N)[C@@H](O)[C@H](C)O1` [Epirubicin], in assay [2] (0.015625 μg/mL, read-out: Percent growth inhibition), the inhibition at 0.015625 µg/mL stood at 8.91%. The inhibition at 0.03125 µg/mL in assay [2] (0.03125 μg/mL, read-out: Percent growth inhibition) stood at 1.2%. For the same compound, the inhibition at 0.0625 µg/mL in assay [2] (0.0625 μg/mL, read-out: Percent growth inhibition) was found to be 2.5%. Besides, the inhibition at 0.125 µg/mL was found to be 6.31% in assay [2] (setting [4]) and 32.7% in assay [3] (setting [4]). Further, the inhibition at 0.25 µg/mL is 17.4% in assay [2] (setting [5]) and 48% in assay [3] (setting [5]). For the same compound, the inhibition at 0.5 µg/mL was determined as 22.4% in assay [2] (setting [6]) and 55.1% in assay [3] (setting [6]). The values for the inhibition at 1 µg/mL in assay [2] (setting [7]) and in assay [3] (setting [7]) were 33.4% and 66.1%, respectively. Moreover, the inhibition at 2 µg/mL in assay [2] (setting [8]) stood at 53.5%; in assay [3] (setting [8]), 74%. For the same compound, the inhibition at 4 µg/mL in assay [2] (setting [9]) amounted to 72.6%; in assay [3] (setting [9]), 82%. Moreover, the IC50 in assay [2] (read-out: IC50) stood at 1.7 µg/mL (≈ 3.14 µM); in assay [3] (PC-3, read-out: IC50), 0.334 µg/mL (≈ 0.614 µM). The inhibition at 8 µg/mL in assay [3] (setting [10]) is 82.8%. For the same compound, in assay [3] (setting [11]), the inhibition at 16 µg/mL was 81.6%. The inhibition at 32 µg/mL in assay [3] (setting [12]) turned out to be 85.6%.

A word on the inhibition: it is the drop in the measured response relative to a control, in per cent. In general, IC50 refers to the point on the concentration scale where inhibition reaches its midpoint.
